Reference: US11780827B2, “Substituted 3-phenoxyazetidin-1-yl-pyrazines” (Boehringer Ingelheim International GmbH, priority 2020, dated 2023)

Columns and labels:
human GPR52 = biological target: T1, human GPR52 (Homo sapiens, UniProt Q9Y2T5); experiment: HTRF assay for direct cAMP measurement; type: cell-based; settings: CHO-K1 cells stably expressing recombinant human GPR52, mean EC50
T1 construct: expressed in transfected cells; host or cells: CHO-K1
Experimental: Homogeneous Time-Resolved Fluorescence (HTRF) Assay for Direct cAMP Measurement.
HTRF cAMP assays were performed using commercially available assay kits according to the manufacturer's instructions (cAMP Dynamic 2 Assay Kit; #62AM4PEJ, Cisbio Bioassays, Bedford, Mass.). An aliquot of CHO-K1 cells stably expressing recombinant human GPR52 is thawed and resuspended in cell buffer (1×PBS (w/o Ca^2+/Mg^2+)) at a density of 4×10^5 cells per mL Test compounds were solubilized in DMSO to 10 mM stock solutions and serially diluted in DMSO using 6-fold dilutions to generate 8-point dose response curves. These serially diluted samples were then diluted 1:50 in compound dilution buffer (1×PBS (w/o Ca^2+/Mg^2+) containing 0.5 mM IBMX, 0.1% BSA) to achieve a 4× stock. The diluted compounds were transferred (5 μL per well) in duplicate to the 384-well assay plate (Optiplate #6007290, PerkinElmer, Waltham, Mass.). Both a positive (reference compound) and negative (non-stimulated vehicle) control are included in each assay run in column 23. The cell suspension was subsequently dispensed into the 384-well assay plates at 15 μL per well (6000 cells) such that the compound was diluted to 1×. […] After a one-hour incubation at room temperature, 10 μL of cAMP D2 reagent followed by 10 μL of cryptate reagent (provided in the Cisbio kit) was added to each well. Plates were then incubated at room temperature for one hour prior to reading. Time-resolved fluorescence measurements were collected on an EnVision® HTRF plate reader (PerkinElmer, Waltham, Mass.). Counts from the plate reader were fit to the cAMP standard curve included on each plate to determine the amount of cAMP in each test well. The % control was calculated based on the positive control set at […]. Dose-response curves were generated from the cAMP data and analyzed using a nonlinear least squares curve-fitting program to obtain EC50 values.

aldehyde oxidase [1] = biological target: T2, aldehyde oxidase (Homo sapiens, UniProt Q06278); experiment: Metabolite formation in pooled human liver cytosol incubations without cofactors; type: in vitro ADME; parameters: key: yes: Metabolite is formed in presence of human liver cytosol in the absence of cofactors as indication of aldehyde oxidase mediated metabolism; Metabolite is not detected in cytosol incubations; settings: human liver cytosol 5 mg/ml, 10 μM test compound, 60 min, metabolite of the same line
T2 construct: endogenous in cells; host or cells: cryopreserved primary human hepatocytes
T2 sequence (Q06278 1-1338): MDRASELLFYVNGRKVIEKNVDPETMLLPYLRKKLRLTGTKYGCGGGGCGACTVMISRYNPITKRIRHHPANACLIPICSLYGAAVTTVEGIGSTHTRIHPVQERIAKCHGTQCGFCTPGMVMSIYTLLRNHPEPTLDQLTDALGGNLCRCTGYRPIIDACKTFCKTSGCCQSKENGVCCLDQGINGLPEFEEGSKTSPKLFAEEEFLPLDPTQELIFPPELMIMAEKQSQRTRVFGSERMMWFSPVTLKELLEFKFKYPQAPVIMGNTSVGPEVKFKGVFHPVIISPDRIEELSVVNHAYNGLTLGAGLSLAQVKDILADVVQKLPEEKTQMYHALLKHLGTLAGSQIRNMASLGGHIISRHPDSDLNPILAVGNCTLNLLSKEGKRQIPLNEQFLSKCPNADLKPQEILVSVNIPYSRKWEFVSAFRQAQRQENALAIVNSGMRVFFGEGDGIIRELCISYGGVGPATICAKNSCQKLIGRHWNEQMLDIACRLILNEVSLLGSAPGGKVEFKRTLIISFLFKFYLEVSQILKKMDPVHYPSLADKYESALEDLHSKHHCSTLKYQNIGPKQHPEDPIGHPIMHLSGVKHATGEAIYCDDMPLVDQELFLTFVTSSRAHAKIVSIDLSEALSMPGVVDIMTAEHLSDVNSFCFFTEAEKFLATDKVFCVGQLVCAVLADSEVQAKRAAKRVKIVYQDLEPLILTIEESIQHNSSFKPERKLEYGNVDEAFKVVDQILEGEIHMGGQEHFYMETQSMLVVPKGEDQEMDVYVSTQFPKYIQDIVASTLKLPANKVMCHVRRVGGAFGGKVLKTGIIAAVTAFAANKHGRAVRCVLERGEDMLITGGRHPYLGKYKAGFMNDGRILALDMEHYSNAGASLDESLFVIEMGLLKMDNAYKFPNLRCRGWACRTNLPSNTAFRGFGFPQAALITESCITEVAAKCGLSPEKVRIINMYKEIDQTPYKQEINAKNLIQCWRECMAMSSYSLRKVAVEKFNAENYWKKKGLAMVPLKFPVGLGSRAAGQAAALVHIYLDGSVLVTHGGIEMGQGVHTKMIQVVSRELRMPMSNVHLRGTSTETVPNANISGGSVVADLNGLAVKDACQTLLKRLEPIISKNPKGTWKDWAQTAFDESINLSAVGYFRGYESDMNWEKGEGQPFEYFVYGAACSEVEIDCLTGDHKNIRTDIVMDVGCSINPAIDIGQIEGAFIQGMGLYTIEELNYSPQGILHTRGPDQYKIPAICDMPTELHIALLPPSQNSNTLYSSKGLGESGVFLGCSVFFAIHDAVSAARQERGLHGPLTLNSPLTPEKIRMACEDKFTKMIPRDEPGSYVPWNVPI
Experimental: (§1) In vitro metabolite profiling to evaluate the involvement of aldehyde oxidase in addition to CYP-mediated metabolic pathways is based on the semiquantitative analysis of the formation of oxygenated metabolites in primary human hepatocytes and the reduction in their formation in presence of the specific aldehyde oxidase inhibitor hydralazine. If respective hydralazine-inhibitable metabolites are also formed in human liver cytosol incubations in the absence of any cofactors, involvement of aldehyde oxidase in the metabolism of the respective compound is considered likely.
The involvement of aldehyde oxidase in the metabolic transformation of the test compound is confirmed at 37° C. with pooled human liver cytosol fractions. The incubations, conducted at a final incubation volume of 60 μl per time point, are composed of phosphate buffer (100 mM, pH 7.4), magnesium chloride (5 mM), and human liver cytosol (5 mg/ml). Following a short preincubation period at 37° C., the reactions are initiated by addition of the test compound, resulting in a final concentration of 10 μM. After 0 and 60 minutes, the incubations are terminated by transferring an aliquot into organic solvent, followed by centrifugation (10000 g, 5 min). The resulting supernatant is used for bioanalysis by liquid chromatography-high resolution mass spectrometry for identification of putative metabolites.

aldehyde oxidase [2] = biological target: T2, aldehyde oxidase; experiment: In vitro metabolite profiling in primary human hepatocytes with or without hydralazine; type: in vitro ADME
Experimental: as §1
The involvement of aldehyde oxidase in metabolic transformation of the test compound is investigated using primary human hepatocytes in suspension in presence or absence of the specific aldehyde oxidase inhibitor hydralazine. After recovery from cryopreservation, human hepatocytes are incubated in Dulbecco's modified eagle medium supplemented with 3.5 μg glucagon/500 ml, 2.5 mg insulin/500 ml and 3.75 mg/500 ml hydrocortisone) containing 5% human serum.
Following a 30 min preincubation in a cell culture incubator (37° C., 10% CO2) with or without 50 μM hydralazine, test compound solution is spiked into the hepatocyte suspension to obtain a final cell density of 1.0*10^6 to 4.0*10^6 cells/mi (depending on the metabolic turnover rate of the compound observed with primary human hepatocytes), a final test compound concentration of 1 μM, and a final DMSO concentration of 0.05%.
The cells are incubated for six hours (incubator, horizontal shaker) and samples are removed from the incubation after 0, 0.5, 1, 2, 4 or 6 hours, depending on the metabolic turnover rate. Samples are quenched with acetonitrile and pelleted by centrifugation. The supernatant is transferred to a 96-deepwell plate, evaporated under nitrogen and resuspended prior to bioanalysis by liquid chromatography-high resolution mass spectrometry for identification of putative metabolites.

T1 sequence (Q9Y2T5 whole entry): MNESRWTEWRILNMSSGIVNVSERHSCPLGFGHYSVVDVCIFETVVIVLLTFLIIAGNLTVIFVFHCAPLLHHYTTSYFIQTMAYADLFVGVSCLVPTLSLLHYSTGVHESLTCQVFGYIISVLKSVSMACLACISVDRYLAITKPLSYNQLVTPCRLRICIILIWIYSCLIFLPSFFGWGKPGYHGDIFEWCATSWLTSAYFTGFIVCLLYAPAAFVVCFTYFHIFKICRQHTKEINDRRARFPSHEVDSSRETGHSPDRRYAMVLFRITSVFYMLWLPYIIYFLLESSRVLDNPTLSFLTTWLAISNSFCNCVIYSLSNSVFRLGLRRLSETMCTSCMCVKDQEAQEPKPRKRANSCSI

Row | Structure (SMILES) | EC50 (human GPR52) | other results
1 | CCc1cc(NC(=O)c2nccnc2N2CC(Oc3ccc(F)c(Cl)c3)C2)cnn1 [Example 19] | 4 nM | –
2 | O=C(Nc1ccncn1)c1nccnc1N1CC(Oc2ccc(F)c(F)c2)C1 [Example 43] | 45 nM | –
3 | CCc1cc(NC(=O)c2nccnc2N2CC(Oc3ccc(F)c(F)c3)C2)ncn1 [Example 37] | 3 nM | –
4 | Cc1cc(NC(=O)c2nccnc2N2CC(Oc3cc(F)cc(C(F)(F)F)c3)C2)ncn1 [Example 31] | 17 nM | –
5 | CCc1cc(NC(=O)c2nccnc2N2CC(Oc3cc(F)c(F)c(F)c3)C2)cnn1 [Example 20] | 5 nM | –
6 | O=C(Nc1ccnnc1)c1nccnc1N1CC(Oc2cc(F)cc(F)c2)C1 [Example 3] | 19 nM | –
7 | Cc1cc(NC(=O)c2nccnc2N2CC(Oc3cc(F)cc(C(F)(F)F)c3)C2)cnn1 [Example 9] | 14 nM | –
8 | O=C(Nc1ccncn1)c1nccnc1N1CC(Oc2ccc(F)c(Cl)c2)C1 [Example 44] | 37 nM | –
9 | O=C(Nc1ccncn1)c1nccnc1N1CC(Oc2cc(F)c(F)c(F)c2)C1 [Example 42] | 23 nM | –
10 | CCc1cc(NC(=O)c2nccnc2N2CC(Oc3cc(F)cc(C(F)(F)F)c3)C2)ncn1 [Example 34] | 30 nM | –
11 | CCc1cc(NC(=O)c2nccnc2N2CC(Oc3cc(F)c(F)c(Cl)c3)C2)cnn1 [Example 23] | 6 nM | –
12 | CCc1cc(NC(=O)c2nccnc2N2CC(Oc3cc(F)cc(F)c3)C2)cnn1 [Example 24] | 6 nM | –
13 | CCc1cc(NC(=O)c2nccnc2N2CC(Oc3cc(F)cc(Cl)c3)C2)cnn1 [Example 18] | 6 nM | –
14 | CCc1cc(NC(=O)c2nccnc2N2CC(Oc3cc(F)cc(C(F)(F)F)c3)C2)cnn1 [Example 17] | 11 nM | –
15 | O=C(Nc1cc(C(F)(F)F)ncn1)c1nccnc1N1CC(Oc2ccc(F)c(Cl)c2)C1 [Example 45] | 14 nM | –
16 | O=C(Nc1cc(C(F)(F)F)ncn1)c1nccnc1N1CC(Oc2ccc(F)c(F)c2)C1 [Example 46] | 7 nM | –
17 | CCc1cc(NC(=O)c2nccnc2N2CC(Oc3cc(F)cc(C(F)F)c3)C2)cnn1 [Example 22] | 7 nM | –
18 | CCc1cc(NC(=O)c2nccnc2N2CC(Oc3cc(F)cc(C(F)F)c3)C2)ncn1 [Example 39] | 12 nM | –

Continued, in another order:

Row | EC50 (human GPR52) | Structure (SMILES) | other results
19 | 8 nM | Cc1cc(NC(=O)c2nccnc2N2CC(Oc3cc(F)c(F)c(Cl)c3)C2)ncn1 [Example 32] | –
20 | 9 nM | O=C(Nc1ccnnc1)c1nccnc1N1CC(Oc2cc(F)cc(C(F)(F)F)c2)C1 [Example 1] | –
21 | 5 nM | Cc1cc(NC(=O)c2nccnc2N2CC(Oc3cc(F)c(F)c(F)c3)C2)cnn1 [Example 15] | Formation in human liver cytosol incubations [yes/no] (aldehyde oxidase [1]): yes; % Parent of drug-related material (aldehyde oxidase [2]; 1 μM test compound): 71%; Contribution of AO to oxidative metabolism (aldehyde oxidase [2]; sum of AO-formed metabolites): 71%
22 | 8 nM | CCc1cc(NC(=O)c2nccnc2N2CC(Oc3cc(F)cc(Cl)c3)C2)ncn1 [Example 35] | –
23 | 6 nM | Cc1cc(NC(=O)c2nccnc2N2CC(Oc3cc(F)c(F)c(F)c3)C2)ncn1 [Example 26] | –
24 | 4 nM | O=C(Nc1ccnnc1)c1nccnc1N1CC(Oc2cc(F)c(F)c(Cl)c2)C1 [Example 8] | –
25 | 10 nM | CCc1cc(NC(=O)c2nccnc2N2CC(Oc3cc(F)cc(F)c3)C2)ncn1 [Example 33] | –
26 | 4 nM | Cc1cc(NC(=O)c2nccnc2N2CC(Oc3ccc(F)c(Cl)c3)C2)ncn1 [Example 25] | –
27 | 4 nM | Cc1cc(NC(=O)c2nccnc2N2CC(Oc3ccc(F)c(Cl)c3)C2)cnn1 [Example 16] | –
28 | 6 nM | CCc1cc(NC(=O)c2nccnc2N2CC(Oc3cc(F)c(F)c(F)c3)C2)ncn1 [Example 36] | –
29 | 10 nM | O=C(Nc1ccnnc1)c1nccnc1N1CC(Oc2ccc(F)c(F)c2)C1 [Example 5] | –
30 | 6 nM | O=C(Nc1ccnnc1)c1nccnc1N1CC(Oc2cc(F)cc(C(F)F)c2)C1 [Example 6] | –
31 | 5 nM | CCc1cc(NC(=O)c2nccnc2N2CC(Oc3ccc(F)c(Cl)c3)C2)ncn1 [Example 40] | –
32 | 8 nM | Cc1cc(NC(=O)c2nccnc2N2CC(Oc3cc(F)cc(Cl)c3)C2)ncn1 [Example 30] | –
33 | 12 nM | O=C(Nc1ccncn1)c1nccnc1N1CC(Oc2cc(F)c(F)c(Cl)c2)C1 [Example 41] | –
34 | 9 nM | O=C(Nc1ccnnc1)c1nccnc1N1CC(Oc2cc(F)cc(Cl)c2)C1 [Example 2] | –
35 | 11 nM | Cc1cc(NC(=O)c2nccnc2N2CC(Oc3cc(F)cc(C(F)F)c3)C2)ncn1 [Example 27] | –
36 | 12 nM | Cc1cc(NC(=O)c2nccnc2N2CC(Oc3cc(F)cc(F)c3)C2)ncn1 [Example 28] | –
37 | 9 nM | CCc1cc(NC(=O)c2nccnc2N2CC(Oc3cc(F)c(F)c(Cl)c3)C2)ncn1 [Example 38] | –
38 | 10 nM | O=C(Nc1ccnnc1)c1nccnc1N1CC(Oc2ccc(F)c(Cl)c2)C1 [Example 7] | –
